The structures appear in SMILES notation.

The results in this text go back to US20250197420A1, “MACROCYCLIC COMPOUNDS, COMPOSITIONS, AND METHODS OF USING THEREOF” (Sionna Therapeutics Inc., priority 2022, published 2025).

T1 sequence (P13569 423-646 limits assumed): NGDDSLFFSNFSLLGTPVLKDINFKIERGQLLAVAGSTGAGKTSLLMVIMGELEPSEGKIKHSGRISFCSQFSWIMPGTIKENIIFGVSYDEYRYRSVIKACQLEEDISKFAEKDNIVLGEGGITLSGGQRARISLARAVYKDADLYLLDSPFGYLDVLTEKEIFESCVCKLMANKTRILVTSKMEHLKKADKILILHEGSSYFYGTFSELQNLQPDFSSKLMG

This experiment addresses T1, Purified recombinant NBD1 (Homo sapiens, UniProt P13569).
T1 construct: Purified recombinant NBD1 was produced using previously described methods; made in house
Briefly: Aggregation analysis using differential static light scattering (DSLS): thermal stability of NBD1. Type of experiment: binding. Particulars: NBD1 0.2 mg/ml; Tagg of compound well minus average Tagg of DMSO control wells. The procedure: Purified recombinant NBD1 was produced using previously described methods (A. Schmidt, J. L. Mendoza, P. J. Thomas (2011) Biochemical and Biophysical Approaches to Probe CFTR Structure (365-376) M. D. Amaral, K. Kunzelmann (eds.), Cystic Fibrosis, Methods in Molecular Biology 741, Springer Science+Business Media). The effect of test compounds on thermal stability of NBD1 was evaluated by differential static light scattering (DSLS) using the Harbinger Stargazer-384 instrument (Epiphyte Three, Toronto, Canada). Test compounds were dissolved and diluted to desired concentrations in 100% DMSO. The compounds or DMSO controls (100 nL) were stamped into wells of a […] low volume optical plate (Corning Inc., Corning, NY) using the Echo 555 acoustic liquid handler (Labcyte Inc., San Jose, CA).
NBD1 protein was diluted to 0.2 mg/ml in S200 buffer (50 mM Tris-HCl, 150 mM NaCl, 5 mM MgCl2, 2 mM ATP, 2 mM DTT, pH7.6) containing 1% glycerol. 10 uL of protein solution was aliquoted into the 384-well plate harboring the test compounds and 10 uL mineral oil was overlaid onto the protein solution, using the epMotion robotic liquid handler (Eppendorf North America, Hauppauge, NY). After placing into the Stargazer instrument, the plate was heated at 1° C. per minute to 70° C. Images were captured from 25° C. to 70° C. every 0.5° C. At the end of the experiment run, instrument software integrated image files and analyzed data automatically. A […] regression curve was generated for each well, representing the increase in light scattering over time. A temperature of aggregation (Tagg) was calculated based on the inflection point of the curve. To better compare data across experiments the average Tagg for DMSO control wells was calculated and subtracted from values for wells containing compounds to obtain a “ΔTagg” value. These ΔTagg values reflect stabilizing efficacy of the compounds. As set forth in Table 2 below, an ΔTagg value less than or equal to 5° C. is marked “A”; a value above 5° C. and less than or equal to 10° C. is marked “B”; a value greater than 10° C. and less than or equal to 25° C. is marked “C”.
In the case of `CN1CCCCCC(C)(c2cccc(CCC(=O)O)c2)c2cnc([nH]2)-c2cc(ccc2F)Oc2c(F)cc3[nH]ccc3c2CC(C)(C)C1=O` (stereo not shown) [Compound 18, 3-[3-(23,29-Difluoro-6,12,14,14-tetramethyl-13-oxo-25-oxa-3,12,20,31-tetrazapentacyclo[24.3.1.12,5.016,24.017,21]hentriaconta-1(30),2,4,16,18,21,23,26,28-nonaen-6-yl)phenyl]propanoic acid], the “DSLS (ΔTagg)” value is “A (an ΔTagg value less than or equal to 5 °C is marked “A”)”.

With `CN1CCOCC(C)(c2cccc(CCC(=O)O)c2)c2cnc([nH]2)-c2cc(ccc2F)Oc2c(F)cc3[nH]ccc3c2CCC1=O` (stereo not shown) [Compound 19, 3-[3-(22,28-Difluoro-6,11-dimethyl-12-oxo-8,24-dioxa-3,11,19,30-tetrazapentacyclo[23.3.1.12,5.015,23.016,20]triaconta-1(29),2,4,15,17,20,22,25,27-nonaen-6-yl)phenyl]propanoic acid], the “DSLS (ΔTagg)” value was “C (a value greater than 10 °C and less than or equal to 25 °C is marked “C”)”.

Consider `CC(CC(=O)O)c1cccc(C2CCCCCN(C)C(=O)CCc3c(c(F)cc4[nH]ccc34)Oc3ccc(F)c(c3)-c3ncc2[nH]3)c1` (stereo not shown) [Compound 21, 3-[3-(23,29-Difluoro-12-methyl-13-oxo-25-oxa-3,12,20,31-tetrazapentacyclo[24.3.1.12,5.016,24.017,21]hentriaconta-1(30),2,4,16,18,21,23,26,28-nonaen-6-yl)phenyl]butanoic acid], for which the “DSLS (ΔTagg)” value is “C (a value greater than 10 °C and less than or equal to 25 °C is marked “C”)”.

Consider `CC(Cc1cccc(C2CCCCCN(C)C(=O)CCc3c(c(F)cc4[nH]ccc34)Oc3ccc(F)c(c3)-c3ncc2[nH]3)c1)C(=O)O` (stereo not shown) [Compound 22, 3-[3-(23,29-Difluoro-12-methyl-13-oxo-25-oxa-3,12,20,31-tetrazapentacyclo[24.3.1.12,5.016,24.017,21]hentriaconta-1(30),2,4,16,18,21,23,26,28-nonaen-6-yl)phenyl]-2-methyl-propanoic acid], for which the “DSLS (ΔTagg)” value is “C (a value greater than 10 °C and less than or equal to 25 °C is marked “C”)”.

In the case of `CC1CNC(=O)CCc2c(c(F)cc3[nH]ccc23)Oc2ccc(F)c(c2)-c2ncc([nH]2)C(C)(c2cccc(CCC(=O)O)c2)COC1` (stereo not shown) [Compound 23, 3-[3-(23,29-Difluoro-6,10-dimethyl-13-oxo-8,25-dioxa-3,12,20,31-tetrazapentacyclo[24.3.1.12,5.016,24.017,21]hentriaconta-1(30),2,4,16,18,21,23,26,28-nonaen-6-yl)phenyl]propanoic acid], the “DSLS (ΔTagg)” value is “C (a value greater than 10 °C and less than or equal to 25 °C is marked “C”)”.

On to `CC1(c2cccc(CCC(=O)O)c2)CCC(=O)NCCCCc2c(c(F)cc3[nH]ccc23)Oc2ccc(F)c(c2)-c2ncc1[nH]2` (stereo not shown) [Compound 24, 3-[3-(22,28-Difluoro-6-methyl-9-oxo-24-oxa-3,10,19,30-tetrazapentacyclo[23.3.1.12,5.015,23.016,20]triaconta-1(29),2,4,15,17,20,22,25,27-nonaen-6-yl)phenyl]propanoic acid], for which the “DSLS (ΔTagg)” value is “C (a value greater than 10 °C and less than or equal to 25 °C is marked “C”)”.

With `CC1(c2ccccc2)CCC(=O)NCCCCc2c(c(F)cc3[nH]ccc23)Oc2ccc(F)c(c2)-c2ncc1[nH]2` (stereo not shown) [Compound 25, 22,28-Difluoro-6-methyl-6-phenyl-24-oxa-3,10,19,30-tetrazapentacyclo[23.3.1.12,5.015,23.016,20]triaconta-1(29),2,4,15,17,20,22,25,27-nonaen-9-one], the “DSLS (ΔTagg)” value was “B (a value above 5 °C and less than or equal to 10 °C is marked “B”)”.

`CC1(C)CCC(c2cccc(CCC(=O)O)c2F)c2cnc([nH]2)-c2cc(ccc2F)Oc2c(F)cc3[nH]ccc3c2CCC(=O)NC1` (stereo not shown) [Compound 32, 3-[3-(22,28-Difluoro-9,9-dimethyl-12-oxo-24-oxa-3,11,19,30-tetrazapentacyclo[23.3.1.12,5.015,23.016,20]triaconta-1(29),2,4,15,17,20,22,25,27-nonaen-6-yl)-2-fluoro-phenyl]propanoic acid]: the “DSLS (ΔTagg)” value is “B (a value above 5 °C and less than or equal to 10 °C is marked “B”)”.

Consider `[2H]C([2H])([2H])n1nc2nc1-c1cc(ccc1F)Oc1c(F)cc3[nH]ccc3c1CCC(=O)N(C)CC(C)(C)CCCC2(C)c1cccc(CCCO)c1` (stereo not shown) [Compound 78, 23,29-difluoro-6-[3-(3-hydroxypropyl)phenyl]-6,10,10,12-tetramethyl-3-(trideuteriomethyl)-25-oxa-3,4,12,20,31-pentazapentacyclo-[24.3.1.12,5.016,24.017,21]hentriaconta-1(30),2(31),4,16,18,21,23,26,28-nonaen-13-one], for which the “DSLS (ΔTagg)” value is “A (an ΔTagg value less than or equal to 5 °C is marked “A”)”.

Regarding `O=C(O)CCc1cccc(C2CCCCOC(=O)NCCc3c(c(F)cc4[nH]ccc34)Oc3ccc(F)c(c3)-c3ncc2[nH]3)c1F` (stereo not shown) [Compound 81, 3-[3-(23,29-Difluoro-12-oxo-11,25-dioxa-3,13,20,31-tetrazapentacyclo[24.3.1.12,5.016,24.017,21]hentriaconta-1(30),2,4,16(24),17(21),18,22,26,28-nonaen-6-yl)-2-fluoro-phenyl]propanoic acid], the “DSLS (ΔTagg)” value is “C (a value greater than 10 °C and less than or equal to 25 °C is marked “C”)”.

As to `O=C1NCCc2c(c(F)cc3[nH]ccc23)Oc2ccc(F)c(c2)-c2ncc([nH]2)C(c2ccccc2F)CCCCO1` (stereo not shown) [Compound 82, 23,29-Difluoro-6-(2-fluorophenyl)-11,25-dioxa-3,13,20,31-tetrazapentacyclo[24.3.1.12,5.016,24.017,21]hentriaconta-1(30),2,4,16(24),17(21),18,22,26,28-nonaen-12-one], the “DSLS (ΔTagg)” value is “A (an ΔTagg value less than or equal to 5 °C is marked “A”)”.

In the case of `CN1CC(O)CCCC(C)(c2cccc(CCC(=O)O)c2)c2cnc([nH]2)-c2cc(ccc2F)Oc2c(F)cc3[nH]ccc3c2CCC1=O` (stereo not shown) [Compound 104, 3-[3-(23,29-Difluoro-10-hydroxy-6,12-dimethyl-13-oxo-25-oxa-3,12,20,31-tetrazapentacyclo[24.3.1.12,5.016,24.017,21]hentriaconta-1(30),2,4,16,18,21,23,26,28-nonaen-6-yl)phenyl]propanoic acid], the “DSLS (ΔTagg)” value was “C (a value greater than 10 °C and less than or equal to 25 °C is marked “C”)”.

Consider `CN1CC(=O)CCCC(C)(c2cccc(CCC(=O)O)c2)c2cnc([nH]2)-c2cc(ccc2F)Oc2c(F)cc3[nH]ccc3c2CCC1=O` (stereo not shown) [Compound 105, 3-[3-(23,29-Difluoro-6,12-dimethyl-10,13-dioxo-25-oxa-3,12,20,31-tetrazapentacyclo[24.3.1.12,5.016,24.017,21]hentriaconta-1(30),2,4,16,18,21,23,26,28-nonaen-6-yl)phenyl]propanoic acid], for which the “DSLS (ΔTagg)” value is “C (a value greater than 10 °C and less than or equal to 25 °C is marked “C”)”.
